# System: MCF-7
# Experiment: CellTiter-Glo cell proliferation inhibition, MCF-7 (Effect Example 2)
# Assay type: cell-based
# Conditions: Homo sapiens, MCF7, 144 h, MCF-7 (CTG), 6 days, starting concentration 10 μM; for inhibition at up to 10 µM: read-out: IH % max (maximum inhibition percentage)
# Outline: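 MCF-7, TamR-MCF-7, and CRISPR-edited MCF-7 ER D538G or Y537S cells were seeded at 1,000 or 2,000 cells/well in EMEM and cultured 24 h. They were then exposed to a 4-fold, 10-point series (top 10 µM before addition to wells) for 6 days or 72 h at 37 °C. CellTiter-Glo luminescence gave IC50 and maximum % inhibition.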
smiles,measurement,value
CS(=O)(=O)c1ccc(-c2ccc3cc(O)ccc3c2Oc2ccc(OCCOCCOCCOCCN3CCN(c4ccc5c(c4)C(=O)N(C4CCC(=O)NC4=O)C5=O)CC3)cc2)cc1 (stereo not drawn) [Compound D19],inhibition at up to 10 µM,44%
"CCN(CCOCCOCCN1CCN(c2ccc3c(c2)C(=O)N(C2CCC(=O)NC2=O)C3=O)CC1)CCOc1ccc(Oc2c(-c3ccc(S(C)(=O)=O)cc3)ccc3cc(O)ccc23)cc1 (stereo not drawn) [Compound D28, 2-(2,6-dioxopiperidin-3-yl)-5-(4-(2-(2-(2-(ethyl(2-(4-((6-hydroxy-2-(4-(methylsulfonyl)phenyl)naphthalen-1-yl)oxy)phenoxy)ethyl)amino)ethoxy)ethoxy)ethyl)piperazin-1-yl)isoindoline-1,3-dione]",IC50,216 nM
same,inhibition at up to 10 µM,53%
"CCN(CCOc1ccc(Oc2c(-c3ccc(S(C)(=O)=O)cc3)ccc3cc(O)ccc23)cc1)C(=O)c1ccc(CCC2CCN(C3CCN(c4ccc5c(c4)C(=O)N(C4CCC(=O)NC4=O)C5=O)CC3)CC2)cc1 (stereo not drawn) [Compound D34, 4-(2-(1′-(2-(2,6-dioxopiperidin-3-yl)-1,3-dioxoisoindolin-5-yl)-[1,4′-bipiperidin]-4-yl)ethyl)-N-ethyl-N-(2-(4-((6-hydroxy-2-(4-(methylsulfonyl)phenyl)naphthalen-1-yl)oxy)phenoxy)ethyl)benzamide]",IC50,69.8 nM
same,inhibition at up to 10 µM,52%
"CS(=O)(=O)c1ccc(-c2ccc3cc(O)ccc3c2Oc2ccc(OCCOCCOCCN3CCN(c4ccc5c(c4)C(=O)N(C4CCC(=O)NC4=O)C5)CC3)cc2)cc1 (stereo not drawn) [Compound D22, 3-(6-(4-(2-(2-(2-(4-((6-hydroxy-2-(4-(methylsulfonyl)phenyl)naphthalen-1-yl)oxy)phenoxy)ethoxy)ethoxy)ethyl)piperazin-1-yl)-1-oxoisoindolin-2-yl)piperidine-2,6-dione]",inhibition at up to 10 µM,38%
"CS(=O)(=O)c1ccc(-c2ccc3cc(O)ccc3c2Oc2ccc(N3CCN(CCCCCOCC(=O)N4CCN(c5ccc6c(c5)CN(C5CCC(=O)NC5=O)C6=O)CC4)CC3)cc2)cc1 (stereo not drawn) [Compound D11, 3-(5-(4-(2-((5-(4-(4-((6-hydroxy-2-(4-(methylsulfonyl)phenyl)naphthalen-1-yl)oxy)phenyl)piperazin-1-yl)pentyl)oxy)acetyl)piperazin-1-yl)-1-oxoisoindolin-2-yl)piperidine-2,6-dione]",inhibition at up to 10 µM,45%
CS(=O)(=O)c1ccc(-c2ccc3cc(O)ccc3c2Oc2ccc(OCCOCCOCCOCCN3CCN(c4ccc5c(c4)C(=O)N(C4CCC(=O)NC4=O)C5)CC3)cc2)cc1 (stereo not drawn) [Compound D21],inhibition at up to 10 µM,44%
"CS(=O)(=O)c1ccc(-c2ccc3cc(O)ccc3c2Oc2ccc(OCCCCN3CCN(c4ccc5c(c4)CN(C4CCC(=O)NC4=O)C5=O)CC3)cc2)cc1 (stereo not drawn) [Compound D59, 3-(5-(4-(4-(4-((6-hydroxy-2-(4-(methylsulfonyl)phenyl)naphthalen-1-yl)oxy)phenoxy)butyl)piperazin-1-yl)-1-oxoisoindolin-2-yl)piperidine-2,6-dione]",inhibition at up to 10 µM,37%
CS(=O)(=O)c1ccc(-c2ccc3cc(O)ccc3c2Oc2ccc(OCCOCCOCCN3CCN(c4ccc5c(c4)CN(C4CCC(=O)NC4=O)C5=O)CC3)cc2)cc1 (stereo not drawn) [Compound D30],IC50,541 nM
same,inhibition at up to 10 µM,55%
"CS(=O)(=O)c1ccc(-c2ccc3cc(O)ccc3c2Oc2ccc(OCCOCCOCCOCCOc3ccc4c(c3)C(=O)N(C3CCC(=O)NC3=O)C4)cc2)cc1 (stereo not drawn) [Compound D35, 3-(6-(2-(2-(2-(2-(4-((6-hydroxy-2-(4-(methylsulfonyl)phenyl)naphthalen-1-yl)oxy)phenoxy)ethoxy)ethoxy)ethoxy)ethoxy)-1-oxoisoindolin-2-yl)piperidine-2,6-dione]",inhibition at up to 10 µM,45%
"C[C@@H]1CN(CCOc2ccc(Oc3c(-c4ccc(S(C)(=O)=O)cc4)ccc4cc(O)ccc34)cc2)[C@@H](C)CN1CCOCC(=O)N1CCN(c2ccc3c(c2)CN(C2CCC(=O)NC2=O)C3=O)CC1 (stereo partly drawn) [Compound D9, 3-(5-(4-(2-(2-((2R,5S)-4-(2-(4-((6-hydroxy-2-(4-(methylsulfonyl)phenyl)naphthalen-1-yl)oxy)phenoxy)ethyl)-2,5-dimethylpiperazin-1-yl)ethoxy)acetyl)piperazin-1-yl)-1-oxoisoindolin-2-yl)piperidine-2,6-dione]",IC50,238 nM
same,inhibition at up to 10 µM,60%
"CCN(CCCCCN(C)CC(=O)N1CCN(c2ccc3c(c2)C(=O)N(C2CCC(=O)NC2=O)C3=O)CC1)CCOc1ccc(Oc2c(-c3ccc(S(C)(=O)=O)cc3)ccc3cc(O)ccc23)cc1 (stereo not drawn) [Compound D31, 2-(2,6-dioxopiperidin-3-yl)-5-(4-(N-(5-(ethyl(2-(4-((6-hydroxy-2-(4-(methylsulfonyl))phenyl)naphthalen-1-yl)oxy)phenoxy)ethyl)aminopentyl)-N-methylglycyl)piperazin-1-yl)isoindoline-1,3-dione]",inhibition at up to 10 µM,32%
"C[C@@H]1CN(CCOCC(=O)N2CCN(c3ccc4c(c3)C(=O)N(C3CCC(=O)NC3=O)C4=O)CC2)[C@@H](C)CN1CCOc1ccc(Oc2c(-c3ccc(S(C)(=O)=O)cc3)ccc3cc(O)ccc23)cc1 (stereo partly drawn) [Compound D15, 2-(2,6-dioxopiperidin-3-yl)-5-(4-(2-(2-((2S,5R)-4-(2-(4-((6-hydroxy-2-(4-(methylsulfonyl)phenyl)naphthalen-1-yl)oxy)phenoxy)ethyl)-2,5-dimethylpiperazin-1-yl)ethoxy)acetyl)piperazin-1-yl)isoindoline-1,3-dione]",IC50,486 nM
same,inhibition at up to 10 µM,51%
"CCN(CCOc1ccc(Oc2c(-c3ccc(S(C)(=O)=O)cc3)ccc3cc(O)ccc23)cc1)CC(=O)N1CCN(c2ccc3c(c2)C(=O)N(C2CCC(=O)NC2=O)C3=O)CC1 (stereo not drawn) [Compound D8, 2-(2,6-dioxopiperidin-3-yl)-5-(4-(N-ethyl-N-(2-(4-((6-hydroxy-2-(4-(methylsulfonyl)phenyl)naphthalen-1-yl)oxy)phenoxy)ethyl)glycyl)piperazin-1-yl)isoindoline-1,3-dione]",inhibition at up to 10 µM,56%

# Source: patent publication US20240131168A1, “NAPHTHALENE RING-CONTAINING COMPOUND, PHARMACEUTICAL COMPOSITION CONTAINING SAME, AND USE THEREOF” (JIANGSU YAHONG MEDITECH CO., LTD., priority 2021, published 2024)
